Results published in patent US12655116B2, “Substituted isophthalic acid diamides” (Bayer Aktiengesellschaft, priority 2020, dated 2026).

Tests used:
ABUTH [1] = assay: Pre-emergence herbicidal action against ABUTH; format: in vivo, Abutilon theophrasti
Summary of the method: (§1)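 Visual rating at 3 weeks vs untreated pots; 0–100% scale, 100% = plants died. Treatment: aqueous WP/EC spray onto covering soil, 600–800 l/ha, 0.2% wetter, seeds in sandy loam.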

ALOMY [2] = assay: Pre-emergence herbicidal action against ALOMY; format: in vivo, Alopecurus myosuroides; settings: 80 g/ha, pre-emergence, scored visually after 3 weeks vs untreated controls (100% = plants have died, 0% = like control plants)
Summary of the method: as §1

AMARE = assay: Pre-emergence herbicidal action against AMARE; format: in vivo, Amaranthus retroflexus
Summary of the method: as §1

ECHCG [3] = assay: Pre-emergence herbicidal action against ECHCG; format: in vivo, Echinochloa crus-galli
Summary of the method: as §1

MATIN [4] = assay: Pre-emergence herbicidal action against MATIN; format: in vivo, Matricaria inodora
Summary of the method: as §1

PHBPU [5] = assay: Pre-emergence herbicidal action against PHBPU; format: in vivo, Pharbitis purpurea; settings: dosage 80 g/ha
Summary of the method: as §1

POLCO [6] = assay: Pre-emergence herbicidal action against POLCO; format: in vivo, Polygonum convolvulus; settings: dosage 80 g/ha
Summary of the method: as §1

SETVI [7] = assay: Pre-emergence herbicidal action against SETVI; format: in vivo, Setaria viridis
Summary of the method: as §1

VERPE [8] = assay: Pre-emergence herbicidal action against VERPE; format: in vivo, Veronica persica
Summary of the method: as §1

VIOTR [9] = assay: Pre-emergence herbicidal action against VIOTR; format: in vivo, Viola tricolor
Summary of the method: as §1

DIGSA = assay: Pre-emergence herbicidal action against DIGSA; format: in vivo, Digitaria sanguinalis
Summary of the method: as §1

ABUTH [10] = assay: Post-emergence herbicidal action against ABUTH; format: in vivo, Abutilon theophrasti; settings: Abutilon theophrasti, 504 h, visual assessment about 3 weeks after treatment vs untreated controls
Summary of the method: (§2)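 Greenhouse pot plants in sandy loam were sprayed at the one-leaf stage, 2 to 3 weeks after sowing, with WP or EC formulations as aqueous suspension or emulsion (600 to 800 l/ha water, 0.2% wetting agent). About 3 weeks later, damage was scored visually against untreated controls as % action (100% = dead, 0% = like control).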

ECHCG [11] = assay: Post-emergence herbicidal action against ECHCG; format: in vivo, Echinochloa crus-galli
Summary of the method: as §2

MATIN [12] = assay: Post-emergence herbicidal action against MATIN; format: in vivo, Matricaria inodora
Summary of the method: as §2

PHBPU [13] = assay: Post-emergence herbicidal action against PHBPU; format: in vivo, Pharbitis purpurea; settings: dosage 20 g/ha
Summary of the method: as §2

POLCO [14] = assay: Post-emergence herbicidal action against POLCO; format: in vivo, Polygonum convolvulus; settings: dosage 20 g/ha
Procedure: Seeds of monocotyledonous and dicotyledonous weed and crop plants are laid out in sandy loam soil in wood-fiber pots, covered with soil and cultivated in a greenhouse under good growth conditions. 2 to 3 weeks after sowing, the test plants are treated at the one-leaf stage. The compounds of the invention, formulated in the form of wettable powders (WP) or as emulsion concentrates (EC), are then sprayed onto the green parts of the plants in the form of an aqueous suspension or emulsion at a water application rate equivalent to 600 to 800 l/ha, with addition of 0.2% wetting agent. After the test plants have been left to stand in the greenhouse under optimal growth conditions for about 3 weeks, the action of the preparations is assessed visually in comparison to untreated controls (herbicidal action in percent (%): 100% activity=the plants have died, 0% activity=like control plants). […] The tables below illustrate, in an illustrative manner, the post-emergence herbicidal action of the compounds of the invention, the herbicidal activity being stated in percent.

SETVI [15] = assay: Post-emergence herbicidal action against SETVI; format: in vivo, Setaria viridis; settings: Setaria viridis, 504 h, dosage 20 g/ha
Summary of the method: as §2

VERPE [16] = assay: Post-emergence herbicidal action against VERPE; format: in vivo, Veronica persica
Summary of the method: as §2

VIOTR [17] = assay: Post-emergence herbicidal action against VIOTR; format: in vivo, Viola tricolor
Summary of the method: as §2

AVEFA = assay: Pre-emergence herbicidal action against AVEFA; format: in vivo, Avena fatua; settings: 80 g/ha, pre-emergence
Summary of the method: as §1

ALOMY [18] = assay: Post-emergence herbicidal action against ALOMY; format: in vivo, Alopecurus myosuroides; settings: dosage 20 g/ha, visual assessment about 3 weeks after treatment vs untreated controls
Summary of the method: as §2

[19] = Tripleurospermum inodorum, 504 h, dosage 20 g/ha
[20] = 80 g/ha, scored visually after 3 weeks vs untreated controls (100% = plants have died, 0% = like control plants)

COc1c(C(=O)Nc2nnnn2C)ccc(C(F)F)c1C(=O)NC1CC1 [Example 1-74]
pest or weed control at 80 g/ha (ABUTH [1]; Abutilon theophrasti, 504 h, 80 g/ha, scored visually after 3 weeks vs untreated controls (100% = plants have died, 0% = like control plants)): 100%
pest or weed control at 20 g/ha (ABUTH [1]; Abutilon theophrasti, 504 h, dosage 20 g/ha, scored visually after 3 weeks vs untreated controls, 100% = plants have died, 0% = like control plants, read-out: Pre-emergence action against ABUTH (herbicidal activity in percent)): 100%
pest or weed control at 80 g/ha (ALOMY [2]; Alopecurus myosuroides, 504 h): 90%
pest or weed control at 20 g/ha (AMARE; Amaranthus retroflexus, 504 h, 20 g/ha, scored visually after 3 weeks vs untreated controls, 100% = plants have died, 0% = like control plants): 100%
pest or weed control at 80 g/ha (AMARE; Amaranthus retroflexus, 504 h, 80 g/ha, scored visually after 3 weeks vs untreated controls, 100% = plants have died, 0% = like control plants): 100%
pest or weed control at 80 g/ha (ECHCG [3]; Echinochloa crus-galli, 504 h, 80 g/ha): 100%
pest or weed control at 20 g/ha (MATIN [4]; [19]): 100%
pest or weed control at 80 g/ha (MATIN [4]; Tripleurospermum inodorum, 504 h, dosage 80 g/ha): 100%
pest or weed control at 80 g/ha (PHBPU [5]; Ipomoea purpurea, 504 h): 100%
pest or weed control at 80 g/ha (POLCO [6]; Fallopia convolvulus, 504 h): 80%
pest or weed control at 20 g/ha (SETVI [7]; Setaria viridis, 504 h, dosage 20 g/ha): 100%
pest or weed control at 80 g/ha (SETVI [7]; Setaria viridis, 504 h, dosage 80 g/ha): 100%
pest or weed control at 80 g/ha (VERPE [8]; Veronica persica, 504 h, dosage 80 g/ha): 100%
pest or weed control at 20 g/ha (VIOTR [9]; Viola tricolor, 504 h, dosage 20 g/ha): 100%
pest or weed control at 80 g/ha (VIOTR [9]; Viola tricolor, 504 h, dosage 80 g/ha): 100%
pest or weed control at 20 g/ha (DIGSA; Digitaria sanguinalis, 504 h, dosage 20 g/ha): 100%
pest or weed control at 80 g/ha (DIGSA; Digitaria sanguinalis, 504 h, dosage 80 g/ha): 100%
pest or weed control at 5 g/ha (ABUTH [10]; dosage 5 g/ha): 80%
pest or weed control at 20 g/ha (ABUTH [10]; dosage 20 g/ha): 80%
pest or weed control at 5 g/ha (ECHCG [11]; Echinochloa crus-galli, 504 h, dosage 5 g/ha): 80%
pest or weed control at 20 g/ha (ECHCG [11]; Echinochloa crus-galli, 504 h, dosage 20 g/ha): 80%
pest or weed control at 5 g/ha (MATIN [12]; Tripleurospermum inodorum, 504 h, dosage 5 g/ha): 80%
pest or weed control at 20 g/ha (MATIN [12]; [19]): 90%
pest or weed control at 20 g/ha (PHBPU [13]; Ipomoea purpurea, 504 h): 90%
pest or weed control at 20 g/ha (POLCO [14]; Fallopia convolvulus, 504 h): 80%
pest or weed control at 20 g/ha (SETVI [15]): 100%
pest or weed control at 5 g/ha (VERPE [16]; Veronica persica, 504 h, 5 g/ha): 80%
pest or weed control at 20 g/ha (VERPE [16]; Veronica persica, 504 h, 20 g/ha): 90%
pest or weed control at 5 g/ha (VIOTR [17]; Viola tricolor, 504 h, 5 g/ha): 80%
pest or weed control at 20 g/ha (VIOTR [17]; Viola tricolor, 504 h, 20 g/ha): 90%

CC(NC(=O)c1c(Br)ccc(C(=O)Nc2nnnn2C)c1Cl)C1CC1 (centres unmarked) [Example 1-183]
Pre-emergence action against ABUTH (herbicidal activity) (ABUTH [1]; [20]): 100%
Pre-emergence action against ABUTH (herbicidal activity in percent) (ABUTH [1]; dosage 20 g/ha, scored visually after 3 weeks vs untreated controls, 100% = plants have died, 0% = like control plants): 100%
Pre-emergence action against ALOMY (herbicidal activity) (ALOMY [2]): 90%
Pre-emergence action against AMARE in % (AMARE; 20 g/ha, scored visually after 3 weeks vs untreated controls, 100% = plants have died, 0% = like control plants): 100%
Pre-emergence action against AMARE in % (AMARE; [20]): 100%
Pre-emergence action against AVEFA in % (AVEFA): 90%
Pre-emergence action against ECHCG in % (ECHCG [3]; 20 g/ha): 90%
Pre-emergence action against ECHCG in % (ECHCG [3]; 80 g/ha): 100%
Pre-emergence action against MATIN in % (MATIN [4]; dosage 20 g/ha): 90%
Pre-emergence action against MATIN in % (MATIN [4]; dosage 80 g/ha): 100%
Pre-emergence action against PHBPU in % (PHBPU [5]): 90%
Pre-emergence action against POLCO in % (POLCO [6]): 80%
Pre-emergence action against SETVI in % (SETVI [7]; dosage 80 g/ha): 100%
Pre-emergence action against VERPE in % (VERPE [8]; dosage 20 g/ha): 90%
Pre-emergence action against VERPE in % (VERPE [8]; dosage 80 g/ha): 100%
Pre-emergence action against VIOTR in % (VIOTR [9]; dosage 20 g/ha): 100%
Pre-emergence action against VIOTR in % (VIOTR [9]; dosage 80 g/ha): 100%
Pre-emergence action against DIGSA in % (DIGSA; dosage 20 g/ha): 100%
Pre-emergence action against DIGSA in % (DIGSA; dosage 80 g/ha): 100%
Post-emergence action against ALOMY in % (ALOMY [18]): 90%
Post-emergence action against ECHCG in % (ECHCG [11]; dosage 20 g/ha): 100%
Post-emergence action against MATIN in % (MATIN [12]; dosage 5 g/ha): 90%
Post-emergence action against MATIN in % (MATIN [12]; dosage 20 g/ha): 90%
Post-emergence action against PHBPU in % (PHBPU [13]): 80%
Post-emergence action against POLCO in % (POLCO [14]): 100%
Post-emergence action against VERPE in % (VERPE [16]; 5 g/ha): 80%
Post-emergence action against VERPE in % (VERPE [16]; 20 g/ha): 90%
Post-emergence action against VIOTR in % (VIOTR [17]; 5 g/ha): 90%
Post-emergence action against VIOTR in % (VIOTR [17]; 20 g/ha): 90%
